ChEMBL document CHEMBL1128123, “Inhibitors of acyl-CoA: Cholesterol O-acyl transferase (ACAT) as hypocholesterolemic agents. 12. Syntheses and biological activity of structurally novel tetrazole amides” (Bioorg Med Chem Lett, 1995)

Key:
[1] = organism: Rattus norvegicus; test: Percent change in total cholesterol in cholic acid (0.5%)-cholesterol (1.5%)-peanut oil (5.5%)-fed rats; assay type: functional
[2] = molecular target: T1, Sterol O-acyltransferase 1 (Rattus norvegicus, UniProt O70536); test: Concentration required for the in vitro inhibition of Acyl coenzyme A:cholesterol acyltransferase (ACAT) in liver microsomes isolated from cholesterol-fed rats; design: species or system Microsome
T1 sequence (O70536 whole entry): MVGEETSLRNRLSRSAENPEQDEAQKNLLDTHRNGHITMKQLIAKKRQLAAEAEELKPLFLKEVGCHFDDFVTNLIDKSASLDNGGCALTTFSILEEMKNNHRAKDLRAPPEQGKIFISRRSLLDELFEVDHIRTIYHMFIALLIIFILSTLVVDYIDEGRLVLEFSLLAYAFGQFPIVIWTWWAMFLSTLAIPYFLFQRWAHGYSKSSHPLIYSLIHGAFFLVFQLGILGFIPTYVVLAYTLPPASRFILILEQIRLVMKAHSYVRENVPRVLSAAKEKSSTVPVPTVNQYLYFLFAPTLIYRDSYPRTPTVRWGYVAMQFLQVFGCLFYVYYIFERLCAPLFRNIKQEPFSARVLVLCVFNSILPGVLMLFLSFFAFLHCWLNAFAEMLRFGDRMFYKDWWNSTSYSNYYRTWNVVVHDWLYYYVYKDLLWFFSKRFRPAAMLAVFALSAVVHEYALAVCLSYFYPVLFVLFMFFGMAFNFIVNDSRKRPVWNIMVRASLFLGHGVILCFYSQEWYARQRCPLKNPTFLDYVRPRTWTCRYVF

[3] = molecular target: T2, Acyl-CoA:cholesterol acyltransferase (Oryctolagus cuniculus, UniProt Q95214); test: Concentration required for the in vitro inhibition of Acyl coenzyme A:cholesterol acyltransferase (ACAT) in intestinal microsomes isolated from cholesterol-fed rabbits; design: species or system Intestine
T2 sequence (Q95214 whole entry): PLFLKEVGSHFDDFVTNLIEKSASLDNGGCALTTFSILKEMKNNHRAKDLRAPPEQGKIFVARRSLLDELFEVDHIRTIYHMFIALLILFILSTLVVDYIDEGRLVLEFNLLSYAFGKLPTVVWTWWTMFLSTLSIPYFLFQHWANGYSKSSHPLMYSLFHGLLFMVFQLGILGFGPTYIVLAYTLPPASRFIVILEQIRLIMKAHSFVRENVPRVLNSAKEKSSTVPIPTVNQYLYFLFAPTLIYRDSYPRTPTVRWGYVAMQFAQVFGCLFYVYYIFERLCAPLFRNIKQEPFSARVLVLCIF

Row | IC50 [2] | IC50 [3] | SMILES | Change TC [1]
1 | 250 nM |  | CCCCCCCCCCCCn1nnc(C(NC(=O)c2cccc(Cl)c2)c2ccccc2)n1 (configuration not stated) | 3%
2 | 350 nM |  | CCCCCCCCCCCCn1nnc(C(NC(=O)c2ccccc2)c2ccccc2)n1 (configuration not stated) | -5%
3 | 810 nM |  | CCCCCCCCCCCCn1nnc(C(NC(=O)c2c(C(C)C)cccc2C(C)C)c2ccccc2)n1 (configuration not stated) | 2%
4 | 510 nM |  | CCCCCCCCCCCCn1nnc(C(NC(=O)c2ccc(C)cc2)c2ccccc2)n1 (configuration not stated) | -4%
5 | 460 nM |  | CCCCCCCCCCCCn1nnc(C(NC(=O)c2c(Cl)cccc2Cl)c2ccccc2)n1 (configuration not stated) | -26%
6 | 180 nM |  | CCCCCCCCCCCCn1nnnc1C(NC(=O)c1c(C)cccc1C)c1ccccc1 (configuration not stated) | -57%
7 | 310 nM | 110 nM | CCCCCCCCCCCCn1nnc(C(NC(=O)c2c(C)cccc2C)c2ccccc2)n1 (configuration not stated) | -40%
8 | 440 nM |  | CCCCCCCCCCCCn1nnc(C(NC(=O)c2ccc(Cl)cc2)c2ccccc2)n1 (configuration not stated) | 
9 | 80 nM |  | CCCCCCCCCCCCn1nnc(C(NC(=O)c2cccc([N+](=O)[O-])c2)c2ccccc2)n1 (configuration not stated) | -33%
10 | 490 nM |  | CCCCCCCCCCCCn1nnc(C(NC(=O)c2ccc(F)cc2F)c2ccccc2)n1 (configuration not stated) | -10%
11 | 650 nM |  | CCCCCCCCCCCCn1nnc(C(NC(=O)c2ccccc2OC)c2ccccc2)n1 (configuration not stated) | -28%

The remaining lines, values behind:

Row | SMILES | IC50 [2] | IC50 [3] | Change TC [1]
12 | CCCCCCCCCCCCn1nnc(C(NC(=O)c2ccc(C(F)(F)F)cc2)c2ccccc2)n1 (configuration not stated) | 850 nM |  | -10%
13 | CCCCCCCCCCCCCCCn1nnc(C(NC(=O)c2c(C)cccc2C)c2ccccc2)n1 (configuration not stated) |  |  | -14%
14 | CCCCCCCCCCC(C)(C)NC(=O)c1c(OC)cc(OC)cc1OC | > 10000 nM |  | -10%
15 | CCCCCCCn1nnc(C(NC(=O)c2c(C)cccc2C)c2ccccc2)n1 (configuration not stated) |  |  | -13%
16 | CCCCCCCCCCCCn1nnc(C(NC(=O)c2ccccc2[N+](=O)[O-])c2ccccc2)n1 (configuration not stated) | 240 nM |  | -27%
17 | CCCCCCCC/C=C\CCCCCCCCNC(=O)c1c(OC)cc(OC)cc1OC | 9400 nM |  | 
18 | CCCCCCCCCCCCn1nnnc1C(NC(=O)c1ccnc(SC)c1)c1ccccc1 (configuration not stated) | 140 nM |  | -37%
19 | CCCCCCCCCCC(C)(C)C(=O)Nc1c(OC)cc(OC)cc1OC [CL-976] |  |  | -73%
20 | CCCCCCCCCCCCn1nnc(C(NC(=O)c2ccc([N+](=O)[O-])cc2)c2ccccc2)n1 (configuration not stated) | 540 nM |  | 8%
21 | CCCCCCCCCCCCn1nnnc1C(NC(=O)c1cccc([N+](=O)[O-])c1)c1ccccc1 (configuration not stated) | 190 nM |  | -31%
22 | CCCCCCCCCCCCn1nnc(C(NC(=O)c2ccc(OC)cc2)c2ccccc2)n1 (configuration not stated) | 600 nM |  | -34%
23 | CCCCCCCCCCCCn1nnnc1C(NC(=O)c1ccccc1C(F)(F)F)c1ccccc1 (configuration not stated) | 350 nM |  | -12%
24 | CCCCCCCCCCCCn1nnc(C(NC(=O)c2ccccc2C(F)(F)F)c2ccccc2)n1 (configuration not stated) | 120 nM |  | -15%
25 | CCCCCCCCCCCCn1nnc(C(NC(=O)c2c(OC)cc(OC)cc2OC)c2ccccc2)n1 (configuration not stated) | 1700 nM |  | -36%
26 | CCCCCCCCCCCCn1nnnc1C(NC(=O)c1ccc(F)cc1F)c1ccccc1 (configuration not stated) | 380 nM |  | -23%
27 | CCCCCCCCCCCCn1nnc(C(NC(=O)c2ccnc(SC)c2)c2ccccc2)n1 (configuration not stated) | 80 nM |  | -68%
28 | CCCCCCCCCCCCn1nnnc1C(NC(=O)c1c(Cl)cccc1Cl)c1ccccc1 (configuration not stated) | 380 nM |  | -31%
